Assay results published in US9957271B2, “Substituted bicyclic aza-heterocycles and analogues as sirtuin modulators” (GlaxoSmithKline, LLC, priority 2012, dated 2018).

How the values were obtained:
SIRT1 [1] = target: T1, SIRT1 (Homo sapiens, UniProt Q96EB6); experiment: TAMRA based mass spectrometry assay of SIRT1 activity; format: biochemical; details: TAMRA peptide substrate; for TAMRA EC1.5: concentration giving 150% activation of SIRT1; for Emax: percent maximum fold activation, read-out: TAMRA % Fold Act
T1 sequence (Q96EB6 1-747): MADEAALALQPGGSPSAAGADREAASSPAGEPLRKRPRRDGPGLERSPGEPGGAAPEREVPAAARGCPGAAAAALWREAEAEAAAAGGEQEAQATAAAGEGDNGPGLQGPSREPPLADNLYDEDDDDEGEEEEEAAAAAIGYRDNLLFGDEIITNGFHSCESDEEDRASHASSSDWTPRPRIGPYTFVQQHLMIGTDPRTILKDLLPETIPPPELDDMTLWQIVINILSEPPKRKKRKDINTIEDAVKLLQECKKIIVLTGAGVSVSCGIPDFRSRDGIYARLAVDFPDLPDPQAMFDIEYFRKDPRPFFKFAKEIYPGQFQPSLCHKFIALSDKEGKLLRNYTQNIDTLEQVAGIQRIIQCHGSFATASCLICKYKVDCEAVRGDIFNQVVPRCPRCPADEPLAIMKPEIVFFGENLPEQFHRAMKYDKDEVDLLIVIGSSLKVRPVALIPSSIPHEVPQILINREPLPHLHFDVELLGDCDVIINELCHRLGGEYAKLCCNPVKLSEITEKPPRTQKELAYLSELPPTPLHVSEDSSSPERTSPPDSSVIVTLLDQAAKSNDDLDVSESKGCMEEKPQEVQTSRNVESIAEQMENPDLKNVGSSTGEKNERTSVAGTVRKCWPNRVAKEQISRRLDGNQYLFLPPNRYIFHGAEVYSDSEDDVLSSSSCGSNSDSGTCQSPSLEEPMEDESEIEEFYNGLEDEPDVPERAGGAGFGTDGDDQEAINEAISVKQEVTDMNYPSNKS
Summary of the method: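 Recombinant N-terminal His-tagged human SIRT1 (10 nM, E. coli) incubated 25 min at 25 °C with 0.5 μM 5TMR-labelled p53-derived acetyl-peptide and 120 μM βNAD+ in Tris-acetate pH 8 buffer with DTT and 0.05% BSA, compound at varying concentrations. Stopped with formic acid; deacetylated peptide or OAADPR measured by mass spectrometry relative to DMSO controls.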

SIRT1 [2] = target: T1, SIRT1; experiment: Trp mass spectrometry assay of SIRT1 activity; format: biochemical; details: Trp peptide substrate; for Trp EC1.5: concentration giving 150% activation of SIRT1; for Emax: percent maximum fold activation, read-out: Trp % Fold Act
Summary of the method: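 His-tagged SIRT1 expressed in E. coli BL21(DE3), 10 nM, incubated 25 min at 25° C. with 0.5 μM Ac-RHKK(Ac)W-NH2 peptide and 120 μM βNAD+ in 50 mM HEPES pH 7.5, […], 1 mM DTT, 0.05% BSA; formic acid stop. OAADPR or deacetylated peptide measured by mass spectrometry; EC1.5 and percent maximum activation versus DMSO control.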

SMILES	TAMRA EC1.5 (SIRT1 [1])	Emax (SIRT1 [1]) [%]	Trp EC1.5 (SIRT1 [2])	Emax (SIRT1 [2]) [%]
Cc1nc2ccc(-c3ccccc3C(F)(F)F)nn2c1C(=O)Nc1ccncn1 [Compound 461]	A (EC1.5<1 μM)	≥ 350	B (EC1.5 1-25 μM)	≥ 350
Cc1nc2ccc(-c3ccccc3C(F)(F)F)nn2c1C(=O)Nc1cnccn1 [Compound 463]	A (EC1.5<1 μM)	≥ 350	B (EC1.5 1-25 μM)	≥ 350
Cc1nc2ccc(-c3ccccc3OC(F)(F)F)nn2c1C(=O)Nc1ccncc1F [Compound 466]	A (EC1.5<1 μM)	≥ 350	A (EC1.5<1 μM)	≥ 350
O=C(Nc1cnc2ccc(-c3ccccc3C(F)(F)F)nn12)c1cccc(O)n1 [Compound 467]	B (EC1.5 1-25 μM)	≥ 350	B (EC1.5 1-25 μM)	< 350
Cc1nc2ccc(-c3ccccc3OC(F)(F)F)nn2c1C(=O)Nc1ccncn1 [Compound 469]	A (EC1.5<1 μM)	≥ 350	B (EC1.5 1-25 μM)	≥ 350
Cc1nc2ccc(-c3ccccc3OC(F)(F)F)nn2c1C(=O)Nc1ccc(F)cn1 [Compound 472]	B (EC1.5 1-25 μM)	< 350	C (EC1.5>25 μM)	< 350
Cc1nc2c(C)cc(-c3ccccc3C(F)(F)F)nn2c1C(=O)Nc1ccncc1F [Compound 473]	A (EC1.5<1 μM)	≥ 350	A (EC1.5<1 μM)	≥ 350
Cc1cc(NC(=O)c2c(C)nc3c(C)cc(-c4ccccc4C(F)(F)F)nn23)nc(C)n1 [Compound 475]	A (EC1.5<1 μM)	≥ 350	B (EC1.5 1-25 μM)	≥ 350
Cc1nc2c(C)cc(-c3ccccc3OC(F)(F)F)nn2c1C(=O)Nc1ccncn1 [Compound 478]	A (EC1.5<1 μM)	≥ 350	A (EC1.5<1 μM)	≥ 350
Cc1cccc(NC(=O)c2c(C)nc3c(C)cc(-c4ccccc4OC(F)(F)F)nn23)n1 [Compound 480]	A (EC1.5<1 μM)	≥ 350	B (EC1.5 1-25 μM)	< 350
Cc1cc(NC(=O)c2c(C)nc3c(C)cc(-c4ccccc4OC(F)(F)F)nn23)ccn1 [Compound 481]	A (EC1.5<1 μM)	≥ 350	A (EC1.5<1 μM)	≥ 350
O=C(Nc1ncn2ccc(-c3ccccc3C(F)(F)F)nc12)c1ccncn1 [Compound 484]	B (EC1.5 1-25 μM)	< 350	C (EC1.5>25 μM)	< 350
COc1cccc(NC(=O)c2cnn3ccc(-c4ccccc4C(F)(F)F)nc23)n1 [Compound 486]	A (EC1.5<1 μM)	≥ 350	A (EC1.5<1 μM)	≥ 350
O=C(Nc1cccc(N2CCOCC2)n1)c1cnc2ccc(N3CC[C@H](F)C3)nn12 [Compound 487, (S)-6-(3-fluoropyrrolidin-1-yl)-N-(6-morpholinopyridin-2-yl)imidazo[1,2-b]pyridazine-3-carboxamide]	B (EC1.5 1-25 μM)	< 350	A (EC1.5<1 μM)	≥ 350
O=C(Nc1cccc(N2CCOCC2)n1)c1cnc2ccc(N3CCC(F)(F)C3)nn12 [Compound 489]	B (EC1.5 1-25 μM)	< 350	A (EC1.5<1 μM)	≥ 350
Cc1cc(C)nc(NC(=O)c2cnc3ccc(N4CC[C@H](F)C4)nn23)c1 [Compound 490]	B (EC1.5 1-25 μM)	≥ 350	B (EC1.5 1-25 μM)	< 350
Cc1nc2ccc(-c3ccccc3OC(F)(F)F)nn2c1C(=O)Nc1ccccn1 [Compound 496]	A (EC1.5<1 μM)	≥ 350	A (EC1.5<1 μM)	< 350
Cc1nc2ccc(-c3ccccc3C(F)(F)F)nn2c1C(=O)Nc1ccncc1 [Compound 499]	A (EC1.5<1 μM)	≥ 350	A (EC1.5<1 μM)	≥ 350
O=C(Nc1cccnn1)c1cnn2ccc(-c3ccccc3C(F)(F)F)nc12 [Compound 505]	A (EC1.5<1 μM)	≥ 350	B (EC1.5 1-25 μM)	< 350
Cc1cnc(NC(=O)c2cnn3ccc(-c4ccccc4C(F)(F)F)nc23)s1 [Compound 507]	A (EC1.5<1 μM)	≥ 350	B (EC1.5 1-25 μM)	< 350
Cc1csc(NC(=O)c2cnn3ccc(-c4ccccc4C(F)(F)F)nc23)n1 [Compound 508]	A (EC1.5<1 μM)	≥ 350	A (EC1.5<1 μM)	≥ 350
CN(C)[C@@H]1CCN(c2ccc3ncc(C(=O)Nc4cccc(N5CCOCC5)n4)n3n2)C1 [Compound 511]	B (EC1.5 1-25 μM)	< 350	B (EC1.5 1-25 μM)	< 350
Cc1cc(C)nc(NC(=O)c2cnc3ccc(N4CC[C@@H](N(C)C)C4)nn23)c1 [Compound 513]	B (EC1.5 1-25 μM)	< 350	C (EC1.5>25 μM)	< 350
Cc1cc(-c2ccccc2C(F)(F)F)nn2c(C(=O)Nc3cccnn3)cnc12 [Compound 514]	A (EC1.5<1 μM)	≥ 350	A (EC1.5<1 μM)	≥ 350
Cc1cc(C)nc(NC(=O)c2cnc3c(C)cc(-c4ccccc4C(F)(F)F)nn23)c1 [Compound 516]	A (EC1.5<1 μM)	≥ 350	B (EC1.5 1-25 μM)	< 350
O=C(Nc1ccncc1F)c1cnn2ccc(-c3ccccc3C(F)(F)F)nc12 [Compound 517]	B (EC1.5 1-25 μM)	≥ 350	B (EC1.5 1-25 μM)	< 350
O=C(Nc1ccc(F)cn1)c1cnn2ccc(-c3ccccc3C(F)(F)F)nc12 [Compound 518]	A (EC1.5<1 μM)	≥ 350	B (EC1.5 1-25 μM)	< 350
COc1cccc(C(=O)Nc2cnn3ccc(-c4ccccc4C(F)(F)F)nc23)n1 [Compound 521]	A (EC1.5<1 μM)	≥ 350	A (EC1.5<1 μM)	< 350
Cc1ccnc(C(=O)Nc2cnn3ccc(-c4ccccc4C(F)(F)F)nc23)c1 [Compound 523]	A (EC1.5<1 μM)	≥ 350	C (EC1.5>25 μM)	< 350
